According to US9145346B1, “Process for 2,2,4,4-tetramethylcyclobutane-1,3-diol crystallization” (Eastman Chemical Company, priority 2014, dated 2015):

Assay: Solubility (saturated concentration) of cis-TMCD and trans-TMCD in various solvents, by gas chromatography
Format: physicochemical
Protocol: All concentrations were measured by gas chromatography. Water concentration was measured by Karl Fischer titrations.
The solubility of cis-TMCD and trans-TMCD in various solvents was determined by charging cis-TMCD, trans-TMCD, and the solvent or solvents of interest into a 120 ml jacketed glass vessel. The vessel was equipped with a stir bar in order to provide mixing and the jacket was used to control the temperature of the vessel contents. The vessel was equipped with charging and sampling ports on top of the vessel.
The slurry was allowed to stand for a time sufficient for the solids to saturate the solvent at the desired temperature. At that time, a sample of the solution was withdrawn from the cell using a fritted pipette so as to remove only the liquid phase. The sample was analyzed for cis-TMCD and trans-TMCD isomer content. These values represent the saturated concentration of each isomer at the sampling temperature.
After this, the cell contents were heated to the next desired temperature and the contents were held for another time interval sufficient to allow the slurry to equilibrate. A sample was then taken of the solution and analyzed. Following this procedure, solubility data was collected up to the final desired temperature.
The reported solubility of each isomer at a given temperature for a given solvent is expressed as a weight % relative to the saturated concentration of the isomer at the highest temperature reported for a given solvent.

## CC1(C)[C@H](O)C(C)(C)[C@H]1O [trans-TMCD, trans-2,2,4,4-tetramethylcyclobutane-1,3-diol]
2-Ethylhexanol, 0.7° C., relative to 89.8° C.
  Relative solubility: 11% relative wt %
2-Ethylhexanol, 12.5° C., relative to 89.8° C.
  Relative solubility: 15% relative wt %
2-Ethylhexanol, 24.7° C., relative to 89.8° C.
  Relative solubility: 20% relative wt %
2-Ethylhexanol, 40.0° C., relative to 89.8° C.
  Relative solubility: 28% relative wt %
2-Ethylhexanol, 49.9° C., relative to 89.8° C.
  Relative solubility: 36% relative wt %
2-Ethylhexanol, 60.2° C., relative to 89.8° C.
  Relative solubility: 45% relative wt %
2-Ethylhexanol, 69.3° C., relative to 89.8° C.
  Relative solubility: 57% relative wt %
2-Ethylhexanol, 79.3° C., relative to 89.8° C.
  Relative solubility: 75% relative wt %
2-Ethylhexanol, 89.8° C., relative to 89.8° C.
  Relative solubility: 100% relative wt %
2-Ethylhexyl Acetate, 5.9° C., relative to 79.4° C.
  Relative solubility: 6% relative wt %
2-Ethylhexyl Acetate, 15.5° C., relative to 79.4° C.
  Relative solubility: 9% relative wt %
2-Ethylhexyl Acetate, 25.1° C., relative to 79.4° C.
  Relative solubility: 12% relative wt %
2-Ethylhexyl Acetate, 40.5° C., relative to 79.4° C.
  Relative solubility: 22% relative wt %
2-Ethylhexyl Acetate, 49.8° C., relative to 79.4° C.
  Relative solubility: 32% relative wt %
2-Ethylhexyl Acetate, 49.9° C., relative to 79.4° C.
  Relative solubility: 33% relative wt %
2-Ethylhexyl Acetate, 60.5° C., relative to 79.4° C.
  Relative solubility: 48% relative wt %
2-Ethylhexyl Acetate, 70.3° C., relative to 79.4° C.
  Relative solubility: 74% relative wt %
2-Ethylhexyl Acetate, 79.4° C., relative to 79.4° C.
  Relative solubility: 100% relative wt %
2-Ethylhexyl Acetate, −5.0° C., relative to 79.4° C.
  Relative solubility: 4% relative wt %
CHDM, 69.0° C., relative to 106.9° C.
  Relative solubility: 54% relative wt %
CHDM, 79.2° C., relative to 106.9° C.
  Relative solubility: 74% relative wt %
CHDM, 88.9° C., relative to 106.9° C.
  Relative solubility: 80% relative wt %
CHDM, 95.6° C., relative to 106.9° C.
  Relative solubility: 91% relative wt %
CHDM, 106.9° C., relative to 106.9° C.
  Relative solubility: 100% relative wt %
Dimethyl Carbonate, 6.2° C., relative to 70.1° C.
  Relative solubility: 7% relative wt %
Dimethyl Carbonate, 16.3° C., relative to 70.1° C.
  Relative solubility: 9% relative wt %
Dimethyl Carbonate, 25.7° C., relative to 70.1° C.
  Relative solubility: 14% relative wt %
Dimethyl Carbonate, 40.5° C., relative to 70.1° C.
  Relative solubility: 27% relative wt %
Dimethyl Carbonate, 54.7° C., relative to 70.1° C.
  Relative solubility: 54% relative wt %
Dimethyl Carbonate, 70.1° C., relative to 70.1° C.
  Relative solubility: 100% relative wt %
Ethanol, 5.3° C., relative to 60.3° C.
  Relative solubility: 51% relative wt %
Ethanol, 14.3° C., relative to 60.3° C.
  Relative solubility: 55% relative wt %
Ethanol, 25.5° C., relative to 60.3° C.
  Relative solubility: 76% relative wt %
Ethanol, 39.9° C., relative to 60.3° C.
  Relative solubility: 82% relative wt %
Ethanol, 50.1° C., relative to 60.3° C.
  Relative solubility: 92% relative wt %
Ethanol, 60.3° C., relative to 60.3° C.
  Relative solubility: 100% relative wt %
Ethyl Acetate, 4.2° C., relative to 54.9° C.
  Relative solubility: 16% relative wt %
Ethyl Acetate, 15.0° C., relative to 54.9° C.
  Relative solubility: 25% relative wt %
Ethyl Acetate, 26.2° C., relative to 54.9° C.
  Relative solubility: 38% relative wt %
Ethyl Acetate, 40.5° C., relative to 54.9° C.
  Relative solubility: 62% relative wt %
Ethyl Acetate, 54.9° C., relative to 54.9° C.
  Relative solubility: 100% relative wt %
Ethyl Acetate, −5.1° C., relative to 54.9° C.
  Relative solubility: 12% relative wt %
Ethylene Glycol, 26.5° C., relative to 91.4° C.
  Relative solubility: 24% relative wt %
Ethylene Glycol, 36.2° C., relative to 91.4° C.
  Relative solubility: 32% relative wt %
Ethylene Glycol, 48.5° C., relative to 91.4° C.
  Relative solubility: 44% relative wt %
Ethylene Glycol, 61.5° C., relative to 91.4° C.
  Relative solubility: 61% relative wt %
Ethylene Glycol, 72.1° C., relative to 91.4° C.
  Relative solubility: 68% relative wt %
Ethylene Glycol, 82.2° C., relative to 91.4° C.
  Relative solubility: 82% relative wt %
Methanol, 16.9° C., relative to 41.3° C.
  Relative solubility: 82% relative wt %
Methanol, 25.6° C., relative to 41.3° C.
  Relative solubility: 89% relative wt %
Methanol, 41.3° C., relative to 41.3° C.
  Relative solubility: 100% relative wt %
Methanol, −2.5° C., relative to 41.3° C.
  Relative solubility: 70% relative wt %
Methyl Acetate, 5.9° C., relative to 49.8° C.
  Relative solubility: 14% relative wt %
Methyl Acetate, 15.5° C., relative to 49.8° C.
  Relative solubility: 22% relative wt %
Methyl Acetate, 25.1° C., relative to 49.8° C.
  Relative solubility: 33% relative wt %
Methyl Acetate, 40.5° C., relative to 49.8° C.
  Relative solubility: 59% relative wt %
Methyl Acetate, 49.8° C., relative to 49.8° C.
  Relative solubility: 100% relative wt %
Methyl Acetate, −5.0° C., relative to 49.8° C.
  Relative solubility: 9% relative wt %
Methyl i-Butyl Carbinol, 9.4° C., relative to 81.9° C.
  Relative solubility: 18% relative wt %
Methyl i-Butyl Carbinol, 20.4° C., relative to 81.9° C.
  Relative solubility: 23% relative wt %
Methyl i-Butyl Carbinol, 31.1° C., relative to 81.9° C.
  Relative solubility: 29% relative wt %
Methyl i-Butyl Carbinol, 40.0° C., relative to 81.9° C.
  Relative solubility: 39% relative wt %
Methyl i-Butyl Carbinol, 49.5° C., relative to 81.9° C.
  Relative solubility: 47% relative wt %
Methyl i-Butyl Carbinol, 60.0° C., relative to 81.9° C.
  Relative solubility: 60% relative wt %
Methyl i-Butyl Carbinol, 69.5° C., relative to 81.9° C.
  Relative solubility: 77% relative wt %
Methyl i-Butyl Carbinol, 81.9° C., relative to 81.9° C.
  Relative solubility: 100% relative wt %
i-Butyl Acetate, 4.8° C., relative to 90.1° C.
  Relative solubility: 6% relative wt %
i-Butyl Acetate, 16.9° C., relative to 90.1° C.
  Relative solubility: 9% relative wt %
i-Butyl Acetate, 25.6° C., relative to 90.1° C.
  Relative solubility: 12% relative wt %
i-Butyl Acetate, 41.3° C., relative to 90.1° C.
  Relative solubility: 21% relative wt %
i-Butyl Acetate, 56.2° C., relative to 90.1° C.
  Relative solubility: 36% relative wt %
i-Butyl Acetate, 70.2° C., relative to 90.1° C.
  Relative solubility: 58% relative wt %
i-Butyl Acetate, 90.1° C., relative to 90.1° C.
  Relative solubility: 100% relative wt %
i-Butyl Acetate, −2.5° C., relative to 90.1° C.
  Relative solubility: 5% relative wt %
n-Butanol, 5.9° C., relative to 60.5° C.
  Relative solubility: 44% relative wt %
n-Butanol, 15.5° C., relative to 60.5° C.
  Relative solubility: 49% relative wt %
n-Butanol, 25.1° C., relative to 60.5° C.
  Relative solubility: 58% relative wt %
n-Butanol, 40.5° C., relative to 60.5° C.
  Relative solubility: 72% relative wt %
n-Butanol, 49.8° C., relative to 60.5° C.
  Relative solubility: 86% relative wt %
n-Butanol, 49.9° C., relative to 60.5° C.
  Relative solubility: 86% relative wt %
n-Butanol, 60.5° C., relative to 60.5° C.
  Relative solubility: 100% relative wt %
n-Butanol, −5.0° C., relative to 60.5° C.
  Relative solubility: 39% relative wt %
n-Butyl Propionate, 6.5° C., relative to 91.9° C.
  Relative solubility: 5% relative wt %
n-Butyl Propionate, 16.8° C., relative to 91.9° C.
  Relative solubility: 8% relative wt %
n-Butyl Propionate, 27.7° C., relative to 91.9° C.
  Relative solubility: 13% relative wt %
n-Butyl Propionate, 41.7° C. (sample 4), relative to 91.9° C.
  Relative solubility: 16% relative wt %
n-Butyl Propionate, 41.7° C. (sample 5), relative to 91.9° C.
  Relative solubility: 22% relative wt %
n-Butyl Propionate, 52.0° C., relative to 91.9° C.
  Relative solubility: 32% relative wt %
n-Butyl Propionate, 61.5° C., relative to 91.9° C.
  Relative solubility: 44% relative wt %
n-Butyl Propionate, 69.1° C., relative to 91.9° C.
  Relative solubility: 59% relative wt %
n-Butyl Propionate, 80.7° C., relative to 91.9° C.
  Relative solubility: 78% relative wt %
n-Butyl Propionate, 91.9° C., relative to 91.9° C.
  Relative solubility: 100% relative wt %
n-Propyl Propionate, 7.0° C., relative to 72.2° C.
  Relative solubility: 11% relative wt %
n-Propyl Propionate, 17.1° C., relative to 72.2° C.
  Relative solubility: 15% relative wt %
n-Propyl Propionate, 26.7° C., relative to 72.2° C.
  Relative solubility: 22% relative wt %
n-Propyl Propionate, 37.4° C., relative to 72.2° C.
  Relative solubility: 29% relative wt %
n-Propyl Propionate, 42.4° C., relative to 72.2° C.
  Relative solubility: 37% relative wt %
n-Propyl Propionate, 52.2° C., relative to 72.2° C.
  Relative solubility: 53% relative wt %
n-Propyl Propionate, 62.9° C., relative to 72.2° C.
  Relative solubility: 76% relative wt %
n-Propyl Propionate, 72.2° C., relative to 72.2° C.
  Relative solubility: 100% relative wt %
